Measurements from article PMC4681449 (Molecular microbiology, 2015).

Molecular target: CjArsP (Campylobacter jejuni, UniProt B5LWZ8)
Assay type: biochemical

Chain of CjArsP (B5LWZ8 1-315): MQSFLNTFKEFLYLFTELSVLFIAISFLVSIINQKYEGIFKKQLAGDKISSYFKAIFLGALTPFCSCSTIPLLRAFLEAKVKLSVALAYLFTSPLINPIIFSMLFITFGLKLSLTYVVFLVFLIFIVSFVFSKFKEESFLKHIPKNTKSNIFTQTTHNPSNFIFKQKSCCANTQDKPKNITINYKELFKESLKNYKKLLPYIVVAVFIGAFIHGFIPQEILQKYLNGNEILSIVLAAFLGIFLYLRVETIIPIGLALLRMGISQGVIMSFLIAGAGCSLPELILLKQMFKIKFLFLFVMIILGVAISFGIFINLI

C[As](O)O [MAs(III), methylarsenite]
uptake into everted membrane vesicles, As by ICP-MS: Everted membrane vesicles from cells expressing CjarsP accumulated MAs(III) when NADH was supplied
